The values below come from patent publication US10273248B2, “Glucose uptake inhibitors” (Kadmon Corporation LLC, priority 2015, dated 2019).

The test system of experiment [1] is HT1080 cells. As to the kind of experiment: Cell proliferation assay, single agents and combinations, HT1080. Format: cell-based. The settings on record: Homo sapiens; HT-1080 cells; read-out: IC50 as a single agent. Here is the method: (§1) Cell Proliferation and Cell Death Assays:
(§2) HT1080 cells (or other cell types) were plated in 96-well format at cell densities suitable for culture from 24-72 hrs. For IC50 of cellular proliferation, cells were fixed with TCA and stained with SRB to quantify relative viability. At the end of the specified assay time, the percentage of drug-treated cells was calculated relative to the DMSO control. For cell death assays, viability was assessed relative to the 0-hour timepoint

Experiment [2] has as its system HT1080 cells. The class given is cell-based. The protocol: as §1, §2
For experiment [3], the system named is glycolysis in HT1080 cells. Put plainly: Glycolysis assay: oligomycin plus compound, cellular ATP by Cell Titer Glo. Format: cell-based. The settings on record: one hour; for IC50: Homo sapiens, HT-1080, 1 h, 10 μM oligomycin, class symbols. An outline of the steps:
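Confluent HT1080 cells treated 1 h with compound plus 10 μM oligomycin to block mitochondrial ATP, so remaining ATP reflects glycolysis. Cellular ATP read by Cell Titer-Glo luminescence; IC50 derived from dose-response curves.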
In general terms: ATP-based viability assays read luminescence as a measure of living cells.

The next experiment relates to Jurkat. Put plainly: Proliferation assay, Jurkat. The class given is cell-based. The settings on record: Homo sapiens, 72 hrs. The protocol: (§3) As previously discussed, glucose is the major energy source for cancer cells and, compared to normal cells, cancer cells rely on increased rates of glycolysis for survival and cell growth. […] Table 2 summarizes these findings for multiple compounds:
as §1, §2

In the next experiment the test system is MOLT-4. As to the kind of experiment: Proliferation assay, MOLT-4. Format: cell-based. The settings on record: Homo sapiens, 72 hrs. The protocol:
as §3, §1, §2

Another experiment concerns U937. As to the kind of experiment: Proliferation assay, U937. The settings on record: Homo sapiens, U-937; 72 hrs. The class given is cell-based. Here is the method: as §3, §1, §2
The subject of experiment [4] is MOG-induced experimental autoimmune encephalitis (EAE). Put plainly: Mouse prophylactic MOG-EAE model. The class given is in vivo. The settings on record: dosed orally day 3 to day 25, compared to vehicle control (FIG. 9). Here is the method:
Mouse Prophylactic MOG-EAE Model:
Performed at Hooke laboratories. Briefly, mice were immunized with MOG peptide on day 0 and subsequently injected with pertussis toxin. Compounds were dosed orally beginning on day 3 continuing until day 25.

Setting [5] is: HT1080 cells, 10 μM Ex. 31 or 25 μM H2O2.

Like-named read-outs stand apart in the source and are kept apart here.

Take `CN(C)CC[C@H](CSc1ccccc1)Nc1ccc(S(=O)(=O)NC(=O)c2ccc(N3CCN(Cc4ccccc4-c4ccc(Cl)cc4)CC3)cc2)cc1[N+](=O)[O-]` [ABT-737, reference compound]: in the experiment on HT1080 cells [1], the IC50 – broadly, the concentration that inhibits the measured activity by half – is ~8500 nM. Also, the “cell death as single agents” value in the experiment on HT1080 cells [2] (HT-1080 cells) is “neither Ex. 31 nor ABT-737 (10 M) caused cell death”.
Regarding `CC(C)NC(=O)COc1cccc(-c2nc3c(c(Nc4ccc(-c5cn[nH]c5)cc4)n2)COC3)c1` [Example 1, 2-(3-(4-((4-(1H-pyrazol-4-yl)phenyl)amino)-5,7-dihydrofuro[3,4-d]pyrimidin-2-yl)phenoxy)-N-isopropylacetamide], the concentration for half-maximal inhibition (IC50) in experiment [3] is 10 to 100 nM; with Jurkat, 630 nM; in the experiment with MOLT-4 it was 1620 nM.
For the molecule `CC(C)NC(=O)COc1cccc(-c2nc(Nc3ccc(-c4cn[nH]c4)cc3)c3ncn(C)c3n2)c1` [Example 5, 2-(3-(6-((4-(1H-pyrazol-4-yl)phenyl)amino)-9-methyl-9H-purin-2-yl)phenoxy)-N-isopropylacetamide], the IC50 in experiment [3] is 251 to 500 nM; with Jurkat, 397 nM.
With `CC(C)NC(=O)COc1cccc(-c2nc(Nc3ccc(-c4cn[nH]c4)cc3)c3sccc3n2)c1` [Example 7, 2-(3-(4-((4-(1H-pyrazol-4-yl)phenyl)amino)thieno[3,2-d]pyrimidin-2-yl)phenoxy)-N-isopropylacetamide], the IC50 is 10 to 100 nM in experiment [3], 500 nM in the experiment on Jurkat, 823 nM in the experiment on MOLT-4 and 388 nM in the experiment on U937. Also, in experiment [4], the “onset and end clinical score” value was “either delayed the onset or lowered the end clinical score”.
On to `O=C(COc1cccc(-c2nc(Nc3ccc(-c4cn[nH]c4)cc3)c3occc3n2)c1)NC1CC1` [Example 21], for which the IC50 in experiment [3] is 501 to 1000 nM; in the experiment with Jurkat, 9400 nM.
Turning to `O=C(COc1cccc(-c2nc(Nc3ccc(-c4cn[nH]c4)cc3)c3sccc3n2)c1)NC1CCC1` [Example 23], the IC50 was 101 to 250 nM in experiment [3] and 162 nM in the experiment with Jurkat.
On to `O=C(COc1cccc(-c2nc(Nc3ccc(-c4cn[nH]c4)cc3)c3sccc3n2)c1)NC1CCCC1` [Example 24], for which the IC50 in experiment [3] is 10 to 100 nM; with Jurkat, 216 nM; in the experiment on MOLT-4 it was 417 nM; in the experiment with U937, 234 nM.
On to `O=C(COc1cccc(-c2nc3c(c(Nc4ccc(-c5cn[nH]c5)cc4)n2)COC3)c1)NC1CCC1` [Example 31], for which the IC50 in experiment [3] was 10 to 100 nM; in the experiment with Jurkat, 294 nM; in the experiment with MOLT-4, 385 nM; in the experiment on U937, 256 nM. Moreover, in the experiment on HT1080 cells [2] (HT1080 cells, 10 μM Ex. 31 + 25 μM H2O2 (FIG. 5B)), the “cell death, combination with H2O2” value is on record as ~45%. Besides, the “cell death as single agents” value was “neither 10 μM Ex. 31 nor 25 μM H2O2 caused cell death” in the experiment with HT1080 cells [2] (setting [5]) and “neither Ex. 31 nor ABT-737 (10 M) caused cell death” in the experiment with HT1080 cells [2] (HT-1080 cells). For the same molecule, in the experiment on HT1080 cells [2] (HT-1080 cells, 72 hours, Ex. 31 + ABT-737 (FIG. 4B)), the “cell death, combination with ABT-737” value is reported as ~60%.
Take `O=C(COc1cccc(-c2nc3c(c(Nc4ccc(-c5cn[nH]c5)cc4)n2)COC3)c1)NC1CCCC1` [Example 32]: the half-maximal inhibitory concentration (IC50) in experiment [3] is 10 to 100 nM; with Jurkat it was 170 nM; in the experiment on MOLT-4, 264 nM; in the experiment on U937 it was 123 nM.
As for `CC(C)CNC(=O)C(C)Oc1cccc(-c2nc3c(c(Nc4ccc(-c5cn[nH]c5)cc4)n2)COC3)c1` (centres unmarked) [Example 186, 2-(3-(4-((4-(1H-pyrazol-4-yl)phenyl)amino)-5,7-dihydrofuro[3,4-d]pyrimidin-2-yl)phenoxy)-N-isobutylpropanamide], the IC50 in experiment [3] is > 1000 nM.
In the case of `CCC(C)NC(=O)C(C)Oc1cccc(-c2nc3c(c(Nc4ccc(-c5cn[nH]c5)cc4)n2)COC3)c1` (centres unmarked) [Example 187, 2-(3-(4-((4-(1H-pyrazol-4-yl)phenyl)amino)-5,7-dihydrofuro[3,4-d]pyrimidin-2-yl)phenoxy)-N-(sec-butyl)propanamide], in experiment [3], the IC50 was > 1000 nM.
As for `CC(Oc1cccc(-c2nc3c(c(Nc4ccc(-c5cn[nH]c5)cc4)n2)COC3)c1)C(=O)NC(C)(C)C` (centres unmarked) [Example 188, 2-(3-(4-((4-(1H-pyrazol-4-yl)phenyl)amino)-5,7-dihydrofuro[3,4-d]pyrimidin-2-yl)phenoxy)-N-(tert-butyl)propanamide], in experiment [3], the IC50 was > 1000 nM.
Consider `CC(Oc1cccc(-c2nc3c(c(Nc4ccc(-c5cn[nH]c5)cc4)n2)COC3)c1)C(=O)NCC(C)(C)C` (centres unmarked) [Example 189, 2-(3-(4-((4-(1H-pyrazol-4-yl)phenyl)amino)-5,7-dihydrofuro[3,4-d]pyrimidin-2-yl)phenoxy)-N-neopentylpropanamide], for which the 50% inhibitory concentration (IC50) in experiment [3] is 251 to 500 nM.
As for `OO` [Example H2O2, H2O2, reference compound], the “cell death as single agents” value in the experiment on HT1080 cells [2] (setting [5]) is “neither 10 μM Ex. 31 nor 25 μM H2O2 caused cell death”.
Turning to `CC[C@H]1/C=C/C=C/C[C@@H](C)[C@H](O)[C@@](C)(O)C(=O)[C@@H](C)[C@H](O)[C@@H](C)C(=O)[C@@H](C)[C@H](O)[C@@H](C)/C=C/C(=O)O[C@@H]2[C@H](C)[C@H](CC1)O[C@]1(CC[C@H](C)[C@H](C[C@@H](C)O)O1)[C@H]2C` [oligomycin, Oligomycin, reference compound], the “cellular ATP levels, agent alone” value in experiment [3] (alone) is reported as “neither oligomycin alone nor control GLUT1 inhibitors substantially decrease cellular ATP levels”.
